According to article PMC9804084, “Multiple drug transporters contribute to the brain transfer of levofloxacin” (CNS Neuroscience & Therapeutics, 2022):
Where two headings read alike, the source gives them in different places.

Experiments:
[1] = tested on: Multidrug resistance-associated proteins (MRPs); test: In vivo microdialysis pharmacokinetics of LVFX with MRPs inhibitor MK571; parameters: species or system rat; details: for increase of AUC0–180 / increase of C max: treatment with MK571 vs control group; for Kp / MRT / half-life / Tmax / AUC(0-inf) / Cmax / AUC(0-t): rat, intravenous; for Kp: with MK571 20 mg/kg intraperitoneally; for MRT / half-life / Tmax / AUC(0-inf) / Cmax / AUC(0-t): with MK571 20 mg/kg i.p.; for MRT / half-life / AUC(0-inf) / Cmax / AUC(0-t): mean ± SD; for AUC(0-t): read-out: AUC0–180 (converted)
Protocol: (§1) On the day of surgery, rats were anesthetized using inhaled isoflurane via a facemask. The rats were placed in a stereotaxic frame (Gene&I), and the body temperature was maintained with a homoeothermic blanket set at 37°C. A midline incision was made to expose the skull. According to the Paxinos and Watson atlas, two microdialysis intracerebral guide cannulae (Eicom Co.) were implanted into the hippocampus CA1 region (Hp‐CA1 coordinates: AP −4.16 mm; ML −2.2 mm; DV −2.9 mm) and lateral ventricle (LV coordinates: AP −1.4 mm; ML +2.2 mm; DV −3.4 mm). Fixed to the skull using a screw and dental cement. After 3 days of recovery, the rats were anesthetized with isoflurane again. An intravascular probe (TP‐100‐20; 20 mm, Eicom Co.) was implanted into the jugular vein toward the right atrium. After the blood microdialysis probe was positioned within the jugular vein, the pipeline was connected to perfuse with ACD solution (citric acid 3.5 mM; sodium citrate 7.5 mM; dextrose 13.6 mM) at a flow rate of […], and the Hamilton microinjection pump was used for continuous perfusion. After stopping isoflurane inhalation, the rats were allowed to wake up naturally on the homoeothermic blanket. The awake rats were placed in a device that allowed them to move freely. Animals were allowed to recover for an additional 24 h.
(§2) All microdialysate concentrations (C m) from the hippocampal ECF and lateral ventricle CSF were converted to the unbound drug concentration (C u) at the target site using the following formula: C u = C m/R dial.
(§3) A total of 32 rats were randomly divided into the following groups: • Control group, N = 12: vehicle solution + LVFX (50 mg/kg). • TAR group, N = 5: Tariquidar (8 mg/kg) + LVFX (50 mg/kg). • Ko143 group, N = 5: Ko143 (15 mg/kg) + LVFX (50 mg/kg). • MK571 group, N = 5: MK571 (20 mg/kg) + LVFX (50 mg/kg). • PRO group, N = 5: Probenecid (50 mg/kg) + LVFX (50 mg/kg).
(§4) Levofloxacin was freshly dissolved in isotonic saline and administered via tail vein injection. Thirty minutes before LVFX administration, the intervention drugs of each group were injected intraperitoneally. To reduce the possible effect of solvents on BBB or BCSFB permeability of LVFX, we prioritized water as the solvent. However, Tariquidar and Ko143 are insoluble in water, and a cosolvent must be used to prepare agents that animals can tolerate. According to the different physicochemical properties of these four inhibitors, the preparation of each transporter inhibitor solution in this experiment was as follows. • P‐glycoprotein (P‐gp) inhibitor Tariquidar[22]: Tariquidar was freshly dissolved in DMSO to 8 mg/ml and then diluted to 4 mg/ml with a solution containing 10% Tween‐80, 25% PEG300, and 65% sterile water. • Breast cancer resistance protein (BCRP) inhibitor Ko143[23]: Ko143 was freshly dissolved in DMSO to 15 mg/ml and then diluted to 7.5 mg/ml with a solution containing 10% Tween‐80, 25% PEG300, and 65% sterile water. • Multidrug resistance‐associated proteins (MRPs) inhibitor MK571[24]: MK571 sodium salt hydrate was dissolved in 1.25% (w/v) aq sodium hydrogen carbonate (NaHCO3) solution to obtain a concentration of 10 mg/ml. • Organic anion transporters (OATs) inhibitor probenecid[25]: Probenecid was dissolved in NaOH (pH = 9.0–9.2) alkalized physiological saline to obtain a concentration of 25 mg/ml.
(§5) The pipelines where the blood and brain probes were installed were perfused at the speed of 2 μl/min with ACD solution and ACSF, respectively. Two brain probes were inserted into guide cannulas of the target site and allowed to equilibrate for 1 h. Subsequently, the rats were treated according to their corresponding groups in the device where they could move freely. Microdialyses samples were collected every 15 min using a fraction collector (EFC‐96, Eicom Co.) for 3 h and stored at 4°C until analysis. Finally, rats were anesthetized and decapitated, and their brain was harvested.

[2] = tested on: Organic anion transporters (OATs); test: In vivo microdialysis pharmacokinetics of LVFX with OATs inhibitor probenecid; parameters: species or system rat; details: for MRT / half-life / Tmax / AUC(0-inf) / Cmax / AUC(0-t) / Kp: rat, intravenous, with Probenecid 50 mg/kg i.p., PRO group, Probenecid 50 mg/kg i.p. + LVFX 50 mg/kg, N=5; for MRT / half-life / AUC(0-inf) / Cmax / AUC(0-t): mean ± SD; for AUC(0-t): read-out: AUC0–180 (converted)
Protocol: as §1, §2, §3, §4, §5

[3] = MK571 intervention vs control group
[4] = CSF (lateral ventricle microdialysate, unbound), 30 min before LVFX, CSF, MK571 group, MK571 20 mg/kg i.p. + LVFX 50 mg/kg, N=5
[5] = CSF (lateral ventricle microdialysate, unbound), CSF, MK571 group, MK571 20 mg/kg i.p. + LVFX 50 mg/kg, N=5
[6] = brain ECF (hippocampal microdialysate, unbound), 30 min before LVFX, brain ECF, MK571 group, MK571 20 mg/kg i.p. + LVFX 50 mg/kg, N=5
[7] = 30 min before LVFX, blood, MK571 group, MK571 20 mg/kg i.p. + LVFX 50 mg/kg, N=5
[8] = blood, PRO group (probenecid 50 mg/kg) vs control group
[9] = CSF (lateral ventricle microdialysate, unbound), 30 min before LVFX, CSF
[10] = CSF (lateral ventricle microdialysate, unbound), CSF
[11] = brain ECF (hippocampal microdialysate, unbound), 30 min before LVFX, brain ECF

C[C@H]1COc2c(N3CCN(C)CC3)c(F)cc3c(=O)c(C(=O)O)cn1c23 [LVFX, Levofloxacin]
K p,uu,CSF ([1]; AUCu,CSF/AUCu,blood, MK571 group, MK571 20 mg/kg i.p. + LVFX 50 mg/kg, N=5): 47.9 ± 2.4 %
K p,uu,ECF ([1]; AUCu,ECF/AUCu,blood, MK571 group, MK571 20 mg/kg i.p. + LVFX 50 mg/kg, N=5): 46.0 ± 1.5 %
increase of AUC0–180 ([1]; CSF): 1.26 fold
increase of C max ([1]; CSF): 1.50 fold
increase in K p,uu,CSF [1, 3]: 1.16 fold
increase in K p,uu,ECF [1, 3]: 1.35 fold
increase of AUC0–180 ([1]; brain ECF): 1.47 fold
increase of C max ([1]; brain ECF): 1.55 fold
Kp ([1]; CSF (lateral ventricle microdialysate) relative to blood, 30 min before LVFX, AUCu,CSF/AUCu,blood, MK571 group, MK571 20 mg/kg i.p. + LVFX 50 mg/kg, N=5, read-out: K p,uu,CSF): 0.479 ± 0.024
MRT [1, 4]: 75.8 min
half-life [1, 4]: 54.9 ± 7.43 min
Tmax [1, 5]: 15 min
AUC(0-inf) [1, 5]: 5860 ng·h/mL
Cmax [1, 5]: 5460 ± 190 ng/mL
AUC(0-t) [1, 5]: 5290 ng·h/mL
Kp ([1]; brain ECF (hippocampal microdialysate) relative to blood, 30 min before LVFX, AUCu,ECF/AUCu,blood, MK571 group, MK571 20 mg/kg i.p. + LVFX 50 mg/kg, N=5, read-out: K p,uu,ECF): 0.46 ± 0.015
Tmax [1, 6]: 15 min
AUC(0-inf) [1, 6]: 5630 ng·h/mL
Cmax [1, 6]: 4210 ± 350 ng/mL
MRT [1, 6]: 80.9 min
half-life [1, 6]: 49 ± 15.1 min
AUC(0-t) [1, 6]: 5080 ng·h/mL
Tmax [1, 7]: 15 min
AUC(0-inf) [1, 7]: 11700 ng·h/mL
Cmax [1, 7]: 10100 ± 310 ng/mL
MRT [1, 7]: 69.7 min
half-life [1, 7]: 39.5 ± 4.79 min
AUC(0-t) [1, 7]: 11000 ng·h/mL
AUC0–180 higher than control group [2, 8]: 128.6%
AUC0–∞ higher than control group [2, 8]: 143.0%
C max greater than control group [2, 8]: 71.2%
MRT longer than control group [2, 8]: 1.29 times
t 1/2 longer than control group [2, 8]: 1.28 times
MRT [2, 9]: 87.9 min
half-life [2, 9]: 57.5 ± 7.55 min
Tmax [2, 10]: 15 min
AUC(0-inf) [2, 10]: 9510 ng·h/mL
Cmax [2, 10]: 6800 ± 240 ng/mL
AUC(0-t) [2, 10]: 8330 ng·h/mL
Kp ([2]; CSF / blood (unbound, microdialysate), 30 min before LVFX, AUCu,CSF/AUCu,blood, read-out: K p,uu,CSF): 0.359 ± 0.008
Tmax [2, 11]: 15 min
AUC(0-inf) [2, 11]: 9220 ng·h/mL
Cmax [2, 11]: 5850 ± 180 ng/mL
half-life [2, 11]: 67 ± 16.8 min
AUC(0-t) [2, 11]: 7830 ng·h/mL
Kp ([2]; brain ECF / blood, 30 min before LVFX, AUCu,ECF/AUCu,blood, read-out: K p,uu,ECF): 0.337 ± 0.012
Tmax ([2]; 30 min before LVFX, blood): 15 min
AUC(0-inf) ([2]; 30 min before LVFX, blood): 27000 ng·h/mL
Cmax ([2]; 30 min before LVFX, blood): 17500 ± 600 ng/mL
MRT ([2]; 30 min before LVFX, blood): 94.9 min
half-life ([2]; 30 min before LVFX, blood): 63.1 ± 9.61 min
AUC(0-t) ([2]; 30 min before LVFX, blood): 23200 ng·h/mL
MRT ([2]; 30 min before LVFX, brain ECF): 96.5 min
